Reference: patent US6682892B2, “Method for treating herpes viruses” (priority 2000, dated 2004)

Tests used:
HSV-2 MS-M1 (V826A) = assay: Plaque reduction assay, 4-oxo-DHQ resistant HSV-2 MS-M1; assay type: cell-based; conditions: Table 2, mutant V826A; read-out: IC50 (uM), HSV-2 MS-M1
Procedure: Antiviral activity of compounds against herpesviruses such as HSV-1, HSV-2, or HCMV can be measured using plaque reduction assays. 0.1 ml of media containing approximately 50 PFU of virus is added to each well of a 24-well cell culture dish containing a confluent monolayer of cells (Vero cells for HSV-1 and HSV-2, HFF cells for HCMV). Compounds are dissolved in 100% DMSO and diluted in 100% DMSO as 200× stocks of the desired final drug concentration. Typically 5-6 two-fold dilutions are prepared for each compound. Dilutions of compounds are then added to media containing 0.8% CMC resulting in a final 1× drug concentration. After the virus-infected cells have incubated for 1 h at 37° C., the virus innoculum is removed and 1 ml of media containing 0.8% CMC and the various concentrations of compound is added to each well of the dish. The dish is incubated at 37° C. for approximately 2-3 days (HSV-1 and HSV-2) or 6-9 days (HCMV) to allow sufficient growth of virus to form plaques in the cell monolayer. Plaques can be observed and counted microscopically or by staining the cells with 0.1% crystal violet in 20% ethanol. […] Antiviral activity of a compound is expressed as the concentration of compound predicted to reduce the number of plaques in a well by 50% (IC50). The IC50 values are calculated by plotting the per cent inhibition vs. concentration of compound using EXCEL software for linear regression.
Vero cells are plated out at a density of 3.5×10^5 cells per well in a six well tissue culture plate. Cells are infected with HSV-1 KOS at a multiplicity of infection (moi) of 0.1 pfu/cell and 1 h post infection the cells are overlayed with 3 ml media containing 20 uM of a 4-oxo-DHQ. Cultures are incubated for 20 h at 37° C., freeze/thawed to release cell-associated virus, and 0.1 ml of culture is used to infect a new monolayer of Vero cells (one passage). Serial passage is repeated seven times in the presence of 20 uM drug. Virus isolates are then plaque purified three times prior to preparation of stocks. 4-oxo-DHQ resistant HSV-1 and HSV-2 may also be selected by the marker transfer method described below using wild-type HSV DNA and the corresponding mutant HSV polymerase gene.
A panel of viruses consisting of four strains of HSV-1 (KOS, F, DJL, Patton) and three strains of HSV-2 (MS, 35D, 186) are tested in a plaque reduction assay against four different 4-oxo-DHQ compounds (#1, 2, 4, 5 as shown in FIG. 1), and one 4-oxo-DHTP compound (#3 as shown in FIG. 1) and against Acyclovir. The six drugs inhibited replication of the seven virus strains with IC50 values ranging from 2-10 μM (Table 1). In order to select for 4-oxo-DHQ resistant mutants, HSV-1 strains KOS, F, and DJL along with HSV-2 strains 186 and MS are serially passaged in the presence of 20 uM compound 1. Following the seventh passage, 4-oxo-DHQ resistant virus from each strain are plaque purified three times and high-titer stocks are made.

HCMV V823A polymerase = molecular target: T1, HCMV V823A polymerase (Human cytomegalovirus, UniProt P08546, V823A); assay: In vitro polymerase assay, mutant HCMV polymerase V823A; assay type: biochemical
T1 construct: made in house
T1 sequence (P08546 1-1242 V823A): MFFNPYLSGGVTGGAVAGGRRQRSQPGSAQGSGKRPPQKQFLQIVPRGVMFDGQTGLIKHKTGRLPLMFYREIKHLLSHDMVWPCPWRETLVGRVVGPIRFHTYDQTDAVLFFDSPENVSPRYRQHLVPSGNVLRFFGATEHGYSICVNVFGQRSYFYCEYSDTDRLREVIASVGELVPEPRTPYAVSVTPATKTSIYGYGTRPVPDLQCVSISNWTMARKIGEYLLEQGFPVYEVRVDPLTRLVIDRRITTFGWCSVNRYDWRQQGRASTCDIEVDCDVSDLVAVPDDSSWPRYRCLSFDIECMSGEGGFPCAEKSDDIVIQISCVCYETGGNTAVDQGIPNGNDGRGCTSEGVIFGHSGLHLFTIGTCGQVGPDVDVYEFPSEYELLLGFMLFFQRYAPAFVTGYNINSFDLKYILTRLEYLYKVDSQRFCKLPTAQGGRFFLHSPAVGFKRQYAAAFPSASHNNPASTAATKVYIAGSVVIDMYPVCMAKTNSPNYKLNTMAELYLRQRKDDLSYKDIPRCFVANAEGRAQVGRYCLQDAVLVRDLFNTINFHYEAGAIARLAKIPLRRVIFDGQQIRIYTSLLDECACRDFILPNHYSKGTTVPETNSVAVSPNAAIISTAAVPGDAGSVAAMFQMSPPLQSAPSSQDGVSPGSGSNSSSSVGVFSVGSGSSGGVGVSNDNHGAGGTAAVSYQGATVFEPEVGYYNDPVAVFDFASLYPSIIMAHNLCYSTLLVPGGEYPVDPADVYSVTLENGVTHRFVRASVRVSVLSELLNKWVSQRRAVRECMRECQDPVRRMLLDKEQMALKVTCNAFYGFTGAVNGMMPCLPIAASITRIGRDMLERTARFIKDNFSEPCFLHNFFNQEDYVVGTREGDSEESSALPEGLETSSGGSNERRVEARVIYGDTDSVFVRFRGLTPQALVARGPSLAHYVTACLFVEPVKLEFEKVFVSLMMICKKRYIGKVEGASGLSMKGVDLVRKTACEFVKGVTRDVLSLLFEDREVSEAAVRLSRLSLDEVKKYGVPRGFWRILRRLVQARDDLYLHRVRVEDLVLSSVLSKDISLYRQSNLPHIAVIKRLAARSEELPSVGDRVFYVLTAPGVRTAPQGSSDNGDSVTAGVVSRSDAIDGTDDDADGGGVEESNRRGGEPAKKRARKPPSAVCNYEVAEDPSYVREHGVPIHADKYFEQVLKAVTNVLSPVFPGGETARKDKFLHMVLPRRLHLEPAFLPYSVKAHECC
Procedure: In order to select for a 4-oxo-DHQ HCMV resistant mutant, virus (strain AD169) is serially passaged in the presence of 20 uM a 4-oxo-DHQ. […] In order to determine if both valines need to be changed in order to confer resistance to the 4-oxo-DHQ's, in vitro polymerase assays are done using mutant HCMV polymerases containing either V823A or V823A plus V824L (Table 3).

SMILES: Cn1cc(C(=O)NCc2ccc(Cl)cc2)c(=O)c2cc(/C=C\CO)cc(F)c21 [Compound 1]
- IC50 (HSV-2 MS-M1 (V826A)): > 20 µM
- IC50 (HCMV V823A polymerase; Table 3): 17.2 µM
- increase in resistance, HCMV V823A polymerase (HCMV V823A polymerase; relative to wild type polymerase): *Generation of the valine to alanine at amino acid 823 of HCMV results in a 3.5-fold increase in resistance.
